Source: ChEMBL document CHEMBL3272150, “Studies on antianaphylactic agents. 5. Synthesis of 3-(1H-tetrazol-5-yl)chromones, a new series of antiallergic substances” (J Med Chem, 1977)
The source made the active and inactive calls. No cut-off for these calls is given here.

Columns and labels:
Rattus norvegicus [1] = experiment: Antiallergic activity in iv dosed Sprague-Dawley rat assessed as inhibition of egg albumin-induced passive cutaneous anaphylaxis administered immediately prior to egg albumin challenge measured after 30 mins by Evan blue dye leakage assay relative to disodium cromoglycate; type: functional
Rattus norvegicus [2] = experiment: Antiallergic activity in po dosed Sprague-Dawley rat assessed as inhibition of egg albumin-induced passive cutaneous anaphylaxis administered 5 mins prior to egg albumin challenge measured after 30 mins by Evan blue dye leakage assay; type: functional; conditions: read-out: ID50 (the source's name)
[3] = Dissociation constant, pKa of the compound; type: physicochemical
Rattus norvegicus [4] = experiment: Antiallergic activity in Sprague-Dawley rat assessed as inhibition of egg albumin-induced passive cutaneous anaphylaxis up to 20 mg/kg, iv administered immediately prior to egg albumin challenge measured after 30 mins by Evan blue dye leakage assay; type: functional, organism-based; parameters: dose 20 mg/kg

Row | SMILES | fold change (FC) (Rattus norvegicus [1]) | other results
1 | O=c1c(-c2nnn[nH]2)coc2ccc([N+](=O)[O-])cc12 | 4 | 
2 | CCCc1ccc2occ(-c3nnn[nH]3)c(=O)c2c1 | 3.4 | 
3 | CC(C)c1ccc2occ(-c3nnn[nH]3)c(=O)c2c1 | 3.4 | ED50 (Rattus norvegicus [2]): 17 mg/kg
4 | O=c1c(-c2nnn[nH]2)coc2ccccc12 | 3.5 | ED50 (Rattus norvegicus [2]): 5.3 mg/kg
5 | O=C(O)c1coc2ccccc2c1=O |  | pKa [3]: 8.85
6 | Cc1cc(C)c2occ(-c3nnn[nH]3)c(=O)c2c1 | 11.6 | ED50 (Rattus norvegicus [2]): 1.25 mg/kg
7 | N#Cc1coc2ccccc2c1=O |  | pKa [3]: 5.85
8 | CCCCCCc1ccc2occ(-c3nnn[nH]3)c(=O)c2c1 | 0.6 | 
9 | Cc1nnc(-c2coc3ccccc3c2=O)o1 |  | inhibition (Rattus norvegicus [4]): inactive
10 | O=c1cc(-c2nnn[nH]2)oc2ccccc12 | 1.4 | 
11 | Cc1oc2ccccc2c(=O)c1Cc1nnn[nH]1 |  | inhibition (Rattus norvegicus [4]): inactive
12 | O=c1c(-c2nnn[nH]2)coc2ccc(C3CCCCC3)cc12 | 0.5 | 
13 | O=c1c(CCc2nnn[nH]2)coc2ccccc12 | 0.07 | 
14 | O=c1c(-c2nnn[nH]2)coc2c1ccc1ccccc12 | 8.3 | ED50 (Rattus norvegicus [2]): 7.4 mg/kg
15 | CCCCc1ccc2occ(-c3nnn[nH]3)c(=O)c2c1 | 1.8 | 
16 | O=C(Cc1nnn[nH]1)c1ccccc1O | 0.35 | 

Row | SMILES | fold change (FC) (Rattus norvegicus [1]) | other results
17 | CC(C)(C)n1nnc(-c2coc3ccccc3c2=O)n1 |  | inhibition (Rattus norvegicus [4]): inactive
18 | CCOC(=O)c1ccc2occ(-c3nnn[nH]3)c(=O)c2c1 | 2.9 | 
19 | COc1ccc2occ(-c3nnn[nH]3)c(=O)c2c1 | 2.2 | ED50 (Rattus norvegicus [2]): 7 mg/kg
20 | CCc1ccc2occ(-c3nnn[nH]3)c(=O)c2c1 | 4 | ED50 (Rattus norvegicus [2]): 6.9 mg/kg
21 | O=c1c(/C=C/c2nnn[nH]2)coc2ccccc12 | 0.3 | 
22 | O=c1c(-c2nnn[nH]2)coc2ccc3ccccc3c12 | 5 | ED50 (Rattus norvegicus [2]): 8.5 mg/kg
23 | O=c1c(-c2nnn[nH]2)coc2ccc(O)cc12 | 4.5 | 
24 | CCCCOc1ccc2c(=O)c(-c3nnn[nH]3)coc2c1 | 0.9 | 
25 | O=c1c(-c2nnn[nH]2)coc2cc(O)c(O)cc12 | 1.8 | 
26 | Cc1ccc2occ(-c3nnn[nH]3)c(=O)c2c1 | 2.4 | ED50 (Rattus norvegicus [2]): 10 mg/kg
27 | O=c1c(-c2nnn[nH]2)coc2cc(O)ccc12 | 1.1 | 
28 | CCCCc1ccc2occ(/C=C/c3nnn[nH]3)c(=O)c2c1 | 0.07 | 
29 | CN(C)c1ccc2occ(-c3nnn[nH]3)c(=O)c2c1 | 2.3 | 
30 | O=c1c(-c2nnn[nH]2)coc2ccc(Cl)cc12 | 4 | 
31 | Cc1oc2ccccc2c(=O)c1-c1nnn[nH]1 | 0.1 | 
32 | O=C([O-])c1cc(=O)c2c(OCC(O)COc3cccc4oc(C(=O)[O-])cc(=O)c34)cccc2o1.[Na+].[Na+] [CROMOLYN SODIUM] |  | ED50 (Rattus norvegicus [2]): > 100 mg/kg
